“Also recorded” adds a separate entry of the source.
Tests used:
[1] = tested on: high-risk cardiovascular disease (CVD) patients; details: cited from earlier work
[2] = Case of patient (T2D, chronic hepatitis B, steatosis) on Januvia and Brake; assay type: in vivo, human; details: 6 months after stopping Brake, sitagliptin continued
Description: Both their Triglycerides and hepatic enzymes were 2-3× elevated. […] Their diabetic control deteriorated on this regimen, to the point where they were considered a candidate for insulin. As an alternative, patient was started on Januvia (sitagliptin) 100 mg per day and 7 pills of Brake™. After 6 months treatment, their HBA1c became normal at 6.0, indicating pancreatic regeneration from the combination product. […] They lost 35 lbs. After 6 months, they stopped the Brake™ therapy but continued sitagliptin. By 6 months later they began to gain weight and their HBA1c rose above 6.0, whereupon they resumed taking Brake™ tablets with return of their HBA1c to normal once again. This case taught the inventors that Brake™ associated organ regeneration is a long lived effect of the combination but not a permanent effect. In fact it is often notable that RYGB patients lose the effects of the surgical procedure after two or more years, and it appears that resumption of dietary indiscretion leads to recrudescence of the metabolic syndrome. Patients are thus advised to be vigilant, particularly if weight gain resumes.

MIN-6 cells = details: cited from earlier work
[3] = 1500 mg taken in three doses of 500 mg; cited from earlier work
[4] = tested on: human abdominal subcutaneous (AbdSc) adipocytes; details: cited from earlier work
C57BL/6J mice = details: 1 mg/kg body weight, cited from earlier work
people with stable COPD = details: in vivo; cited from earlier work
[5] = tested on: patients with initial abnormal values; experiment: Rate of change of weight, HBA1c, HDL, TG and AST in RYGB, Brake, combination and control patients (FIGS. 18-22); assay type: in vivo, human
[6] = tested on: patients with metabolic syndrome; experiment: FS index of metabolic syndrome tracked over time in patient groups (neural net model); assay type: in vivo, human
Description: The FS index (Fayad/Schentag) of MS (the relevant equation for which appears in attached FIG. 15) considers the following: Fasting Blood Glucose, Fasting Insulin, HBA1c, BMI, AST, Triglycerides, Glucose Supply-Demand (SD) index, and Proinsulin. Each parameter is mathematically arranged to increase as MS worsens, and weighted approximately equally in the prediction of MS progression and risk for organ damage.
The FS index was then applied to well-studied patient populations already in databases, using a neural net model and the equation set forth in FIG. 15 (and as above). The database included previously published 50 patients with T2D having CV events principally myocardial infarctions, and controls of a precisely matched group of T2D patients without these events (2, 3). […] For each study patient, we had complete access to all raw data, measured vital signs, culture results, and clinician assessments. […]
FS index values were calculated from serial laboratory and clinical data over timeframes ranging between 2 and 10 years. […]
The FS index was applied to well-studied patient populations already in our databases, using a neural net model. […] FS index values were calculated from serial laboratory and clinical data over timeframes ranging 2-10 years. […]

patients with RA = details: human, in vivo; cited from earlier work
[7] = tested on: hypercholesterolemic New Zealand White rabbits; details: cited from earlier work

COc1cc(OC)c2c(=O)[nH]c(-c3cc(C)c(OCCO)c(C)c3)nc2c1 [RVX-208]
change of ratio of necrotic core to dense calcium (NC/DC) ([1]; VH-IVUS, treated patients n=61): −7.5% | incidence of MACE lower vs. placebo ([1]; patients with hsCRP >2.0 mg/dL): 63%

N[C@@H](CC(=O)N1CCn2c(nnc2C(F)(F)F)C1)Cc1cc(F)c(F)cc1F [sitagliptin]
HBA1c [2]: above 6.0

COc1cc2ncnc(Nc3cccc(Cl)c3)c2cc1OC [AG1478]
effect on BTC proliferative effect (MIN-6 cells): blocked

COc1ccc2cc3[n+](cc2c1OC)CCc1cc2c(cc1-3)OCO2 [Berberine]
anti-diabetic effects (biomarkers of type 2 diabetes) [3]: appear to be equal to those of 1500 mg Metformin or 4 mg Glibenclamide

lipopolysaccharide [LPS]
TLR-2 protein expression increase [4]: twofold | TNF-alpha secretion ([4]; control 1.0+/-0.83): 32.8 ± 6.23 pg/mL | IL-6 secretion ([4]; control 2.7+/-0.5): 4.8 ± 0.3 ng/mL

CC(C)=CCC[C@](C)(O)[C@H]1CC[C@]2(C)[C@@H]1[C@H](O)C[C@@H]1[C@@]3(C)CC[C@H](O[C@@H]4O[C@H](CO)[C@@H](O)[C@H](O)[C@H]4O)C(C)(C)[C@@H]3CC[C@]12C [GS-Rh2, ginsenoside Rh2]
glycemia and glucose tolerance (C57BL/6J mice; within 14 days post-PPx): improved glycemia and glucose tolerance | beta-cell proliferation (C57BL/6J mice): increased beta-cell proliferation percentages

O=C(Nc1c(Cl)cncc1Cl)c1ccc(OC(F)F)c(OCC2CC2)c1 [Roflumilast]
body weight during the trial period (people with stable COPD): weight loss

CC(C)c1c(C(=O)Nc2ccccc2)c(-c2ccccc2)c(-c2ccc(F)cc2)n1CC[C@@H](O)C[C@@H](O)CC(=O)O [atorvastatin]
HDL change ([5]; FIG. 20, control patients mostly atorvastatin 10 mg): essentially no change in HDL | triglyceride (TG) changes ([5]; FIG. 21): either stayed the same or had a minor drop in TG | AST concentrations and rate of change ([5]; FIG. 22): little effect on hepatic inflammation

CN(C)C(=N)N=C(N)N [metformin]
weight change ([5]; FIG. 18): either stayed the same or lost a few pounds | HBA1c change ([5]; FIG. 19): either stayed the same or had a minor drop in HBA1c | effect on metabolic syndrome biomarkers when given alone ([5]; FIGS. 18-21 control patients): little effect | parameters that would indicate regeneration ([6]; control patients, even at dosages of 2.0 grams daily): no significant change | pattern of FS index over time ([6]; metformin alone, 61 patients (FIG. 5)): rises; also recorded: flat or slowly rising

CN(Cc1cnc2nc(N)nc(N)c2n1)c1ccc(C(=O)N[C@@H](CCC(=O)O)C(=O)O)cc1 [MTX, Methotrexate]
risk of CVD events (patients with RA): associated with a reduced risk of CVD events

CCCCCCCCCCC(C)(C)C(=O)Nc1c(OC)cc(OC)cc1OC [CI-976, 2,2-dimethyl-N-(2,4,6-trimethoxyphenyl) dodecanamide]
decrease of cholesteryl ester enrichment in thoracic aorta ([7]; rabbit, in vivo): 46% | effect on plasma triglycerides ([7]; rabbit, in vivo): no effect | reduction of foam cell area in iliac-femoral lesion ([7]; relative to the initiation of intervention, dose that did not lower plasma cholesterol): 27-29%

COc1cc(/C=C(\C#N)C(N)=O)cc(CSc2nc3ccccc3s2)c1O [AG825]
effect on BTC proliferative effect (MIN-6 cells): blocked

Reference: patent US20170173060A1, “ACTIVATION OF THE ENDOGENOUS ILEAL BRAKE HORMONE PATHWAY FOR ORGAN REGENERATION AND RELATED COMPOSITIONS, METHODS OF TREATMENT, DIAGNOSTICS, AND REGULATORY SYSTEMS” (VOLANT HOLDINGS GMBH, priority 2014, published 2017)
